{
  "source": "patent US20200246316A1",
  "about": "“METHODS OF TREATING POST-SURGICAL PAIN WITH A THIAZOLINE ANTI-HYPERALGESIC AGENT” (CERSCI THERAPEUTICS, INC., priority 2019, published 2020)",
  "key": {"[1]": {"assay": "Rat 28-day GLP repeat dose PO study (toxicokinetics)", "format": "in vivo", "details": "rat, in vivo, po; for half-life: read-out: t1/2 (converted); for Tmax: read-out: tmax; for Cmax: read-out: Cmax", "experimental": "The vehicle was 0.5% HPMC. There were 15 rats/sex in the control and high dose groups (5/sex for a 14-day recovery period) while the low and mid doses consisted of 10 rats/sex. Satellite groups of rats/sex/group for toxicokinetics were included.\nRats in Group 1 (Vehicle Control) were bled once at approximately 1 hour post-dose on those days."}, "[2]": {"test_system": "peroxynitrite (PN)", "assay": "Chemical-based assays of peroxynitrite (PN) oxidation", "format": "biochemical", "description": "(§1) In cell-based assays of PN-mediated cytotoxicity, Compound 1 is protective. […] Chemically, Compound 1 can also react stoichiometrically with peroxynitrite to form a para-nitro adduct. Without being bound by theory, by targeting and removing peroxynitrite and peroxide, Compound 1 can disrupt the ensuing cascades that lead to hypersensitivity (protein modification, ion channel hyperexcitation) thus providing a long duration event in terms of pain relief."}, "[3]": {"test_system": "lactoperoxidase oxidation (mediated by peroxide)", "assay": "Lactoperoxidase oxidation (mediated by peroxide)", "format": "biochemical", "details": "physiological conditions (neutral pH)", "description": "as §1"}, "[4]": {"assay": "Dog single dose study, IV 10 mg/kg and oral 10 and 100 mg/kg", "format": "in vivo", "details": "for peak plasma concentration: fasted", "experimental": "In another study, Compound 1 was administered IV as a single dose to fasted beagle dogs at 10 mg/kg and orally at 10 and 100 mg/kg. Compound 1 was rapidly and well absorbed orally, within 1 hr, reaching peak plasma concentrations of 15 and 108 μg/mL at 10 and 100 mg/kg doses, respectively. The compound distributed readily in tissues with a moderate steady-state volume of distribution (0.3 L/kg)."}, "[5]": {"details": "female, 2000 mg/kg, Day 28, F, 2000 mg/kg PO"}, "[6]": {"details": "male, 500 mg/kg, Day 1, M, 500 mg/kg PO"}, "[7]": {"details": "male, 500 mg/kg, Day 14, M, 500 mg/kg PO"}, "[8]": {"details": "male, 500 mg/kg, Day 28, M, 500 mg/kg PO"}, "[9]": {"details": "male, 1000 mg/kg, Day 1, M, 1000 mg/kg PO"}, "[10]": {"details": "male, 1000 mg/kg, Day 14, M, 1000 mg/kg PO"}, "[11]": {"details": "male, 1000 mg/kg, Day 28, M, 1000 mg/kg PO"}, "[12]": {"details": "male, 2000 mg/kg, Day 1, M, 2000 mg/kg PO"}, "[13]": {"details": "male, 2000 mg/kg, Day 14, M, 2000 mg/kg PO"}, "[14]": {"details": "male, 2000 mg/kg, Day 28, M, 2000 mg/kg PO"}},
  "note": "Where a name gives a salt, the structure may show the parent alone. Read-outs that look alike come from different tables or passages of the source.",
  "data": [
    {"smiles": "CC1(C)SC(Nc2ccccc2O)=N[C@@H]1C(=O)O", "note": "[Compound 1, (R)-2-(2-hydroxyphenylamino)-5,5-dimethyl-4,5-dihydrothiazole-4-carboxylic acid mono-hydrochloride]", "values": [
      {"measurement": "half-life", "setting": "[1]; [5]", "result": 3.93, "unit": "h"},
      {"measurement": "Tmax", "setting": "[1]; [5]", "result": 0.5, "unit": "h"},
      {"measurement": "AUC", "setting": "[1]; [6]", "result": 270, "unit": "µg·h/mL"},
      {"measurement": "AUC(0-inf)", "setting": "[1]; [6]", "result": 275, "unit": "µg·h/mL"},
      {"measurement": "CL/F", "setting": "[1]; male, 500 mg/kg, Day 1, M, 500 mg/kg PO, read-out: CL/F (CLz/F) (converted)", "result": 30.3, "unit": "mL/min/kg"},
      {"measurement": "Cmax", "setting": "[1]; [6]", "result": 55.1, "unit": "µg/mL"},
      {"measurement": "Vd/F", "setting": "[1]; male, 500 mg/kg, Day 1, M, 500 mg/kg PO, read-out: V/F (Vz/F)", "result": 11, "unit": "L/kg"},
      {"measurement": "half-life", "setting": "[1]; [6]", "result": 4.18, "unit": "h"},
      {"measurement": "Tmax", "setting": "[1]; [6]", "result": 1, "unit": "h"},
      {"measurement": "AUC", "setting": "[1]; [7]", "result": 244, "unit": "µg·h/mL"},
      {"measurement": "AUC(0-inf)", "setting": "[1]; [7]", "result": 258, "unit": "µg·h/mL"},
      {"measurement": "CL/F", "setting": "[1]; male, 500 mg/kg, Day 14, M, 500 mg/kg PO, read-out: CL/F (CLss/F) (converted)", "result": 34.2, "unit": "mL/min/kg"},
      {"measurement": "Cmax", "setting": "[1]; [7]", "result": 45.8, "unit": "µg/mL"},
      {"measurement": "Vd/F", "setting": "[1]; male, 500 mg/kg, Day 14, M, 500 mg/kg PO, read-out: V/F (Vss/F)", "result": 18.5, "unit": "L/kg"},
      {"measurement": "half-life", "setting": "[1]; [7]", "result": 6.27, "unit": "h"},
      {"measurement": "Tmax", "setting": "[1]; [7]", "result": 1, "unit": "h"},
      {"measurement": "AUC", "setting": "[1]; [8]", "result": 305, "unit": "µg·h/mL"},
      {"measurement": "AUC(0-inf)", "setting": "[1]; [8]", "result": 333, "unit": "µg·h/mL"},
      {"measurement": "CL/F", "setting": "[1]; male, 500 mg/kg, Day 28, M, 500 mg/kg PO, read-out: CL/F (CLss/F) (converted)", "result": 27.3, "unit": "mL/min/kg"},
      {"measurement": "Cmax", "setting": "[1]; [8]", "result": 48.6, "unit": "µg/mL"},
      {"measurement": "Vd/F", "setting": "[1]; male, 500 mg/kg, Day 28, M, 500 mg/kg PO, read-out: V/F (Vss/F)", "result": 16.4, "unit": "L/kg"},
      {"measurement": "half-life", "setting": "[1]; [8]", "result": 6.9, "unit": "h"},
      {"measurement": "Tmax", "setting": "[1]; [8]", "result": 1, "unit": "h"},
      {"measurement": "CL/F", "setting": "[1]; male, 1000 mg/kg", "result": 56.8, "unit": "mL/min/kg"},
      {"measurement": "AUC", "setting": "[1]; [9]", "result": 456, "unit": "µg·h/mL"},
      {"measurement": "AUC(0-inf)", "setting": "[1]; [9]", "result": 460, "unit": "µg·h/mL"},
      {"measurement": "CL/F", "setting": "[1]; male, 1000 mg/kg, Day 1, M, 1000 mg/kg PO, read-out: CL/F (CLz/F) (converted)", "result": 36.2, "unit": "mL/min/kg"},
      {"measurement": "Cmax", "setting": "[1]; [9]", "result": 52.7, "unit": "µg/mL"},
      {"measurement": "Vd/F", "setting": "[1]; male, 1000 mg/kg, Day 1, M, 1000 mg/kg PO, read-out: V/F (Vz/F)", "result": 10.9, "unit": "L/kg"},
      {"measurement": "half-life", "setting": "[1]; [9]", "result": 3.46, "unit": "h"},
      {"measurement": "Tmax", "setting": "[1]; [9]", "result": 1, "unit": "h"},
      {"measurement": "AUC", "setting": "[1]; [10]", "result": 293, "unit": "µg·h/mL"},
      {"measurement": "AUC(0-inf)", "setting": "[1]; [10]", "result": 296, "unit": "µg·h/mL"},
      {"measurement": "Cmax", "setting": "[1]; [10]", "result": 51.9, "unit": "µg/mL"},
      {"measurement": "Vd/F", "setting": "[1]; male, 1000 mg/kg, Day 14, M, 1000 mg/kg PO, read-out: V/F (Vss/F)", "result": 18.1, "unit": "L/kg"},
      {"measurement": "half-life", "setting": "[1]; [10]", "result": 3.68, "unit": "h"},
      {"measurement": "Tmax", "setting": "[1]; [10]", "result": 1, "unit": "h"},
      {"measurement": "AUC", "setting": "[1]; [11]", "result": 334, "unit": "µg·h/mL"},
      {"measurement": "AUC(0-inf)", "setting": "[1]; [11]", "result": 337, "unit": "µg·h/mL"},
      {"measurement": "CL/F", "setting": "[1]; male, 1000 mg/kg, Day 28, M, 1000 mg/kg PO, read-out: CL/F (CLss/F) (converted)", "result": 49.8, "unit": "mL/min/kg"},
      {"measurement": "Cmax", "setting": "[1]; [11]", "result": 47.9, "unit": "µg/mL"},
      {"measurement": "Vd/F", "setting": "[1]; male, 1000 mg/kg, Day 28, M, 1000 mg/kg PO, read-out: V/F (Vss/F)", "result": 14.3, "unit": "L/kg"},
      {"measurement": "half-life", "setting": "[1]; [11]", "result": 3.31, "unit": "h"},
      {"measurement": "CL/F", "setting": "[1]; male, 2000 mg/kg", "result": 47.7, "unit": "mL/min/kg"},
      {"measurement": "AUC", "setting": "[1]; [12]", "result": 768, "unit": "µg·h/mL"},
      {"measurement": "AUC(0-inf)", "setting": "[1]; [12]", "result": 771, "unit": "µg·h/mL"},
      {"measurement": "CL/F", "setting": "[1]; male, 2000 mg/kg, Day 1, M, 2000 mg/kg PO, read-out: CL/F (CLz/F) (converted)", "result": 43.2, "unit": "mL/min/kg"},
      {"measurement": "Cmax", "setting": "[1]; [12]", "result": 83.1, "unit": "µg/mL"},
      {"measurement": "Vd/F", "setting": "[1]; male, 2000 mg/kg, Day 1, M, 2000 mg/kg PO, read-out: V/F (Vz/F)", "result": 10.5, "unit": "L/kg"},
      {"measurement": "half-life", "setting": "[1]; [12]", "result": 2.81, "unit": "h"},
      {"measurement": "AUC", "setting": "[1]; [13]", "result": 701, "unit": "µg·h/mL"},
      {"measurement": "AUC(0-inf)", "setting": "[1]; [13]", "result": 709, "unit": "µg·h/mL"},
      {"measurement": "Cmax", "setting": "[1]; [13]", "result": 75.6, "unit": "µg/mL"},
      {"measurement": "Vd/F", "setting": "[1]; male, 2000 mg/kg, Day 14, M, 2000 mg/kg PO, read-out: V/F (Vss/F)", "result": 15.1, "unit": "L/kg"},
      {"measurement": "half-life", "setting": "[1]; [13]", "result": 3.66, "unit": "h"},
      {"measurement": "Tmax", "setting": "[1]; [13]", "result": 1, "unit": "h"},
      {"measurement": "AUC", "setting": "[1]; [14]", "result": 724, "unit": "µg·h/mL"},
      {"measurement": "AUC(0-inf)", "setting": "[1]; [14]", "result": 731, "unit": "µg·h/mL"},
      {"measurement": "CL/F", "setting": "[1]; male, 2000 mg/kg, Day 28, M, 2000 mg/kg PO, read-out: CL/F (CLss/F) (converted)", "result": 46, "unit": "mL/min/kg"},
      {"measurement": "Cmax", "setting": "[1]; [14]", "result": 83.6, "unit": "µg/mL"},
      {"measurement": "Vd/F", "setting": "[1]; male, 2000 mg/kg, Day 28, M, 2000 mg/kg PO, read-out: V/F (Vss/F)", "result": 14.1, "unit": "L/kg"},
      {"measurement": "half-life", "setting": "[1]; [14]", "result": 3.53, "unit": "h"},
      {"measurement": "t1/2", "setting": "[1]; 2000 mg/kg", "result": "8 05 hr"},
      {"measurement": "PN-mediated oxidation of small-molecule organic substrates such as luminol", "setting": "[2]", "result": "inhibits PN-mediated oxidation"},
      {"measurement": "removal of peroxynitrite in lactoperoxidase oxidation", "setting": "[3]", "result": "catalytically remove peroxynitrite"},
      {"measurement": "peak plasma concentration", "setting": "[4]; 10 mg/kg oral", "result": 15, "unit": "µg/mL"},
      {"measurement": "peak plasma concentration", "setting": "[4]; 100 mg/kg oral", "result": 108, "unit": "µg/mL"},
      {"measurement": "bioavailability", "setting": "[4]; beagle, dog, plasma, po, both 10 and 100 mg/kg doses", "result": 75, "unit": "%"},
      {"measurement": "time to peak plasma concentration", "setting": "[4]; oral, fasted beagle dogs", "result": "≤ 1", "unit": "h"}
    ]}
  ]
}
